This note sets out measurements from patent US20080132505A1 (Glaxo Group Limited, priority 2004, published 2008).

The assay has as its target human cannabinoid CB2 receptor (Homo sapiens, UniProt P34972). Description: Cannabinoid CB2 receptor agonist activity (yeast reporter assay, FDGlu fluorescence). Format: cell-based. As to conditions: for Emax: read-out: efficacy value (Emax relative to HU210) at the cloned human cannabinoid CB2 receptor. The procedure: Determination of Cannabinoid CB2 Receptor Agonist Activity
The cannabinoid CB2 receptor agonist activity of the compounds of formula (I)-(IV) was determined in accordance with the following experimental method.
Yeast (Saccharomyces cerevisiae) cells expressing the human cannabinoid CB2 receptor were generated by integration of an expression cassette into the ura3 chromosomal locus of yeast strain MMY23. This cassette consisted of DNA sequence encoding the human CB2 receptor flanked by the yeast GPD promoter to the 5′ end of CB2 and a yeast transcriptional terminator sequence to the 3′ end of CB2. MMY23 expresses a yeast/mammalian chimeric G-protein alpha subunit in which the C-terminal 5 amino acids of Gpa1 are replaced with the C-terminal 5 amino acids of human Gαi3 (as described in Brown et al. (2000), Yeast 16:11-22). Cells were grown at 30° C. in liquid Synthetic Complete (SC) yeast media (Guthrie and Fink (1991), Methods in Enzymology, Vol. 194) lacking uracil, tryptophan, adenine and leucine to late logarithmic phase (approximately 6 OD600/ml).
Agonists were prepared as 10 mM stocks in DMSO. […] Agonist solutions in DMSO (1% final assay volume) were transferred into black, clear bottom, microtitre plates from NUNC (96- or 384-well). Cells were suspended at a density of 0.2 OD600/ml in SC media lacking histidine, uracil, tryptophan, adenine and leucine and supplemented with 10 mM 3-aminotriazole, 0.1M sodium phosphate pH 7.0, and […] fluorescein di-β-D-glucopyranoside (FDGlu). This mixture (50 ul per well for 384-well plates, 200 ul per well for 96-well plates) was added to agonist in the assay plates (Multidrop 384, Labsystems). After incubation at 30° C. for 24 hours, fluorescence resulting from degradation of FDGlu to fluorescein due to exoglucanase, an endogenous yeast enzyme produced during agonist-stimulated cell growth, was determined using a Spectrofluor microtitre plate reader (Tecan; excitation wavelength: 485 nm; emission wavelength: 535 nm). Fluorescence was plotted against compound concentration and iteratively curve fitted using a four parameter fit to generate a concentration effect value. Efficacy (Emax) was calculated from the equation
where Max[compound X] and Min[compound X] are the fitted maximum and minimum respectively from the concentration effect curve for compound X, and Max[HU210] and Min[HU210] are the fitted maximum and minimum respectively from the concentration effect curve for (6aR,10aR)-3-(1,1′-Dimethylheptyl)-6a,7,10,10a-tetrahydro-1-hydroxy-6,6-dimethyl-6H-dibenzo[b,d]pyran-9-methanol (HU210; available from Tocris). Equieffective molar ratio (EMR) values were calculated from the equation
Where EC50 [compound X] is the EC50 of compound X and EC50 [HU210] is the EC50 of HU210.

The mark [1] stands for this setting: EC50 value at the cloned human cannabinoid CB2 receptor.

pEC50: −log10 of the molar value. Like-named read-outs stand apart in the source and are kept apart here.

human cannabinoid CB2 receptor, sequence (P34972 whole entry): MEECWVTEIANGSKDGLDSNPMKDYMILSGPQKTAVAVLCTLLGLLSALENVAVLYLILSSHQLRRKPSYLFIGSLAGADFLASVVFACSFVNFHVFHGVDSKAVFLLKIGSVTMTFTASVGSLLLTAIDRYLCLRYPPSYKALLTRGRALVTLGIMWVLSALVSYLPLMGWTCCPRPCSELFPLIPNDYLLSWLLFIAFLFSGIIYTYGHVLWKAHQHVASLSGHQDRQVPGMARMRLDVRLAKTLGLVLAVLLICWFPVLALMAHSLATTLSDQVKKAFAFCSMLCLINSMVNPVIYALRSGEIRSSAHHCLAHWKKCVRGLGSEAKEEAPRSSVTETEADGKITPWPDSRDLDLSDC

As to `O=C(c1cnc(Nc2cc(Cl)cc(Cl)c2)nc1C(F)(F)F)N1CCOCC1` [Example 13, 1-[2-(3,5-Dichlorophenylamino)-4-trifluoromethylpyrimidin-5-yl]-1-morpholin-4-yl-methanone], the maximal response (Emax) (in general, the greatest response seen or fitted, relative to the assay's reference) is greater than 50%. The negative-log EC50 (pEC50) – broadly, the EC50 on a negative log10 scale, so that one unit is a factor of ten – under setting [1] was 6.52 to 7.70.

Regarding `O=C(NCC1CCC1)c1cnc(Nc2cc(Cl)cc(Cl)c2)nc1C(F)(F)F` [Example 206, 2-(3,5-Dichlorophenylamino)-4-trifluoromethyl-pyrimidine-5-carboxylic acid cyclobutylmethyl-amide], the Emax is greater than 50%. Moreover, the pEC50 under setting [1] is 6.52 to 7.70.

Regarding `CN(Cc1ccccc1)C(=O)c1cnc(Nc2ccccc2Cl)nc1C(F)(F)F` [Example 305, 2-(2-Chloro-phenylamino)-4-trifluoromethyl-pyrimidine-5-carboxylic acid N-benzyl-N-methyl-amide], under setting [1], the negative logarithm of the EC50 (pEC50) was 6.00 to 6.52.

Turning to `O=C(c1cnc(Nc2cccc(F)c2)nc1C(F)(F)F)N1CCCCC1` [Example 78, 1-[2-(3-fluorophenylamino)-4-trifluoromethyl-pyrimidin-5-yl]-1-piperidin-1-yl-methanone], the Emax is greater than 50%. Moreover, the pEC50 under setting [1] is 6.00 to 6.52.

With `O=C(NC1CCC1)c1cnc(Nc2cccc(Cl)c2)nc1C(F)(F)F` [Example 23, 2-(3-Chlorophenylamino)-4-trifluoromethylpyrimidine-5-carboxylic acid cyclobutyl-amide], the maximal response (Emax) was greater than 50%. For the same molecule, the pEC50 under setting [1] was 6.52 to 7.70.

As to `O=C(NCC1CCOCC1)c1cnc(Nc2cccc(Cl)c2Cl)nc1C(F)(F)F` [Example 33, 2-(2,3-Dichlorophenylamino)-4-trifluoromethylpyrimidine-5-carboxylic acid (tetrahydropyran-4-ylmethyl)amide], the Emax was greater than 50%. Moreover, under setting [1], the pEC50 is 6.52 to 7.70.

For the molecule `O=C(NC1CCS(=O)(=O)CC1)c1cnc(Nc2cccc(Cl)c2Cl)nc1C(F)(F)F` [Example 82, 2-(2,3-Dichlorophenylamino)-4-trifluoromethyl-pyrimidine-5-carboxylic acid (1,1-dioxo-tetrahydro-2H-thiopyran-4-yl)-amide], the maximal response (Emax) was greater than 50%. Further, the pEC50 under setting [1] was 6.00 to 6.52.

Regarding `N#Cc1ccc(Nc2ncc(C(=O)NCC3CCC3)c(C(F)(F)F)n2)c(Cl)c1` [Example 103, 2-(2-Chloro-4-cyanophenylamino)-4-trifluoromethyl-pyrimidine-5-carboxylic acid cyclobutylmethyl-amide], the maximal effect (Emax) was greater than 50%. The same molecule had a pEC50 under setting [1] of 6.00 to 6.52.

For `O=C(c1cnc(Nc2cccc(Cl)c2)nc1C(F)(F)F)N1CCOCC1` [Example 3, 1-[2-(3-Chlorophenylamino)-4-trifluoromethylpyrimidin-5-yl]-1-morpholin-4-yl-methanone], the maximal response (Emax) is greater than 50%. Moreover, the pEC50 under setting [1] is 6.52 to 7.70.

For `O=C(NCc1ccc(F)cc1)c1cnc(Nc2cccc(Br)c2)nc1C(F)(F)F` [Example 289, 2-(3-Bromophenylamino)-4-trifluoromethylpyrimidine-5-carboxylic acid 4-fluorobenzyl-amide], the pEC50 (read-out: EC50 value at the cloned human cannabinoid CB2 receptor) was 6.52 to 7.70.

With `O=C(NCC1CCCCC1)c1cnc(Nc2cc(Br)cc(C(F)(F)F)c2)nc1C(F)(F)F` [Example 91, 2-(3-Bromo-5-trifluoromethyl-phenylamino)-4-trifluoromethyl-pyrimidine-5-carboxylic acid cyclohexylmethyl-amide], the Emax was greater than 50%. The negative logarithm of the EC50 (pEC50) under setting [1] was 6.00 to 6.52.

The molecule `O=C(NCc1ccccc1)c1cnc(Nc2cc(Cl)cc(Cl)c2)nc1C(F)(F)F` [Example 276, 2-(3,5-Dichlorophenylamino)-4-trifluoromethylpyrimidine-5-carboxylic acid benzyl-amide] showed a pEC50 under setting [1] of 6.52 to 7.70.

`O=C(NCc1ccccc1)c1cnc(Nc2cccc(Br)c2)nc1C(F)(F)F` [Example 278, 2-(3-Bromophenylamino)-4-trifluoromethylpyrimidine-5-carboxylic acid benzyl-amide]: the Emax is greater than 50%. This molecule had a pEC50 under setting [1] of 6.52 to 7.70.

With `N#Cc1ccc(Nc2ncc(C(=O)NCC3CCOCC3)c(C(F)(F)F)n2)c(Cl)c1` [Example 235, 2-(2-Chloro-4-cyano-phenylamino)-4-trifluoromethyl-pyrimidine-5-carboxylic acid (tetrahydro-pyran-4-ylmethyl)-amide], the maximum response (Emax) is greater than 50%. Moreover, the pEC50 under setting [1] is 6.52 to 7.70.

As to `O=C(NCC1CCCCC1)c1cnc(Nc2ccc(Br)cc2C(F)(F)F)nc1C(F)(F)F` [Example 106, 2-(2-Trifluoromethyl-4-bromophenylamino)-4-trifluoromethyl-pyrimidine-5-carboxylic acid cyclohexylmethyl-amide], the Emax was greater than 50%. The same molecule had a pEC50 under setting [1] of 6.00 to 6.52.

As for `Cc1cc(CNC(=O)c2cnc(Nc3cccc(Br)c3)nc2C(F)(F)F)ccn1` [Example 304, 2-(3-Bromo-phenylamino)-4-trifluoromethyl-pyrimidine-5-carboxylic acid (2-methyl-pyridin-4-ylmethyl)-amide], the Emax is greater than 50%. The negative logarithm of the EC50 (pEC50) under setting [1] is 6.00 to 6.52.

`CC(C)c1cc(Nc2ccc(Br)c(C(F)(F)F)c2)ncc1C(=O)NCC1CCOCC1` [Example 752, 6-(4-Bromo-3-trifluoromethyl-phenylamino)-4-isopropyl-N-(tetrahydropyran-4-ylmethyl)-nicotinamide]: the Emax was greater than 50%. This molecule showed a negative-log EC50 (pEC50) under setting [1] of 6.00 to 6.52.

As for `O=C(NCC1CCCC1)c1cnc(Nc2cccc(Cl)c2Cl)nc1C(F)(F)F` [Example 40, 2-(2,3-Dichlorophenylamino)-4-trifluoromethylpyrimidine-5-carboxylic acid cyclopentylmethyl-amide], the maximal effect (Emax) was greater than 50%. This molecule showed a negative logarithm of the EC50 (pEC50) under setting [1] of 6.52 to 7.70.

With `CC(C)c1cc(Nc2cc(Cl)ccc2C#N)ncc1C(=O)NCC1CCOCC1` [Example 679, 6-(5-Chloro-2-cyano-phenylamino)-4-isopropyl-N-(tetrahydro-pyran-4-ylmethyl)-nicotinamide], the Emax is less than 30%.

Consider `CN(Cc1ccccc1)C(=O)c1cnc(Nc2cccc(F)c2)nc1C(F)(F)F` [Example 301, 2-(3-Fluoro-phenylamino)-4-trifluoromethyl-pyrimidine-5-carboxylic acid N-benzyl-N-methyl-amide], for which the maximal response (Emax) is greater than 50%. For the same molecule, the negative-log EC50 (pEC50) under setting [1] was 6.00 to 6.52.

Regarding `Cc1cccc(Nc2cc(C(C)C)c(C(=O)NCc3ccc(F)cc3)cn2)c1C#N` [Example 395, 6-(2-Cyano-3-methyl-phenylamino)-N-(4-fluoro-benzyl)-4-isopropyl-nicotinamide], the Emax was greater than 50%.

For `O=C(NCC1CCC1)c1cnc(Nc2ccc(Cl)cc2Cl)nc1C(F)(F)F` [Example 201, 2-(2,4-Dichlorophenylamino)-4-trifluoromethyl-pyrimidine-5-carboxylic acid cyclobutylmethyl-amide], the Emax was greater than 50%. The negative logarithm of the EC50 (pEC50) under setting [1] is 6.52 to 7.70.

As to `CC(C)c1cc(Nc2cccc(OC(F)(F)F)c2)ncc1C(=O)NCC1CCC1` [Example 682, N-Cyclobutylmethyl-4 isopropyl-6-(3-trifluoromethoxy-phenylamino)-nicotinamide], the Emax is greater than 50%.

On to `O=C(NCC1CCOCC1)c1cnc(Nc2cccc(F)c2F)nc1C(F)(F)F` [Example 107, 2-(2,3-Difluoro-phenylamino)-4-tri-fluoromethyl-pyrimidine-5-carboxylic acid (tetrahydropyran-4-ylmethyl)-amide], for which the maximal response (Emax) was greater than 50%. Further, the pEC50 under setting [1] was 6.00 to 6.52.
